Data from patent publication US20240400579A1, “SPIROCYCLIC MODULATORS OF CHOLESTEROL BIOSYNTHESIS AND THEIR USE FOR PROMOTING REMYELINATION” (GENENTECH, INC., priority 2021, published 2024).
Like-named read-outs stand apart in the source and are kept apart here.

Experiments:
[1] = molecular target: human emopamil binding protein and human 7-dehydrocholesterol reductase co-expressing cell membrane (Homo sapiens (Human), UniProt Q15125); assay: hEBP-DHCR7 radioligand filtration binding assay with [3H]-Compound 118A*; conditions: radioligand [3H]-Compound 118A*; HEK293 membrane co-expressing hEBP and DHCR7
human emopamil binding protein and human 7-dehydrocholesterol reductase co-expressing cell membrane, sequence (Q15125 whole entry): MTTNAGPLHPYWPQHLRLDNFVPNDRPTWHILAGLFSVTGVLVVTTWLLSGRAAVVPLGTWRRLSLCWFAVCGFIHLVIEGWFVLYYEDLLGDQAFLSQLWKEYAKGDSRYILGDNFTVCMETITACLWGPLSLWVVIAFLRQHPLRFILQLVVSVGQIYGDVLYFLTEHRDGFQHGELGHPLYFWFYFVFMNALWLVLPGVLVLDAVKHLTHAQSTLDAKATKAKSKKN
Experimental: Membrane Preparation: human emopamil binding protein and human 7-dehydrocholesterol reductase co-expressing cells were generated by transient transfecting host human embryonic kidney (HEK) 293 cells with 2 DNA constructs containing each protein's coding sequence. Cells were suspension cultured at 37° C. with 5% CO2 in […] 293 Expression Medium (Thermofisher). Whole cell membrane was prepared by harvesting the cell pellet, adding cold membrane buffer (50 mM Tris, pH7.5, 1× Roche COMPLETE EDTA-free protease inhibitor cocktail) 10 times volume of the cell pellets weight, lysing cell pellet on ice by using Dounce homogenizer, spinning at 200 g 4° C. for 15 min, collecting supernatant and spinning again at 25000 g 4° C. for 50 min, transferring pellet to Dounce homogenizer, re-suspending pellet by homogenizing in membrane buffer on ice to reach ˜25 mg/mL, then keeping whole cell membrane aliquots at −80° C.
Compounds were prepared in a 96-well U bottom plate using an Echo550 machine and 10 mM compound DMSO stock solution, followed by an 8-dose 5-fold serial dilutions protocol with final testing compound concentration ranging from 0.06 to 5000 nM, with DMSO back fill to 100 nL/well and n=2. […] The UniFilter-96 GF/B plates were pre-treated by adding 50 μl/well of 0.3% (v/v) PEI to UniFilter-96 GF/B plates. The plates were sealed and incubated at 4° C. for 3 hrs. Then, the plates were washed with ice-cold assay buffer 3 times. The radioligand binding assay was prepared by adding assay buffer diluted hEBP-DHCR7 membrane at 66.7 μg/ml x 150 μl/well into the 96-well compound plate to reach 10 μg membrane per well. Then, the assay buffer diluted [3H]-Compound 118A* was added at 25 nM×50 μl/well. Following this, the plate was centrifuged at 1000 rpm for 30 secs. The plate was then sealed and agitated at 600 rpm at 22° C. for 5 min, and then incubated at 22° C. for 3 hrs. The incubation was stopped by transferring the binding solution to the pre-treated UniFilter-96 GF/B plate, vacuum filtrated, and then washed four times with ice-cold assay buffer. Following this, the plates were dried at 37° C. for 45 min. The plates were then sealed at the bottom. 40 μl/well of scintillation cocktail was added to the plates. A MicroBeta2 microplate counter was then used to read the plate and analyze the data. For reference and test compounds, the results are expressed as % Inhibition, using the normalization equation: N=100-100×(U−C2)/(C1−C2), where U is the unknown value, C1 is the average of high controls, and C2 is the average value of low controls. The IC50 was determined by fitting percentage of inhibition as a function of compound concentrations with Hill equation using XLfit. Results are expressed as hEBP-DHCR7 Ki (uM) in Table 4. Ki was calculated as described above.

[2] = test system: zymostenol accumulation in EpiSC-derived OPCs (EBP); assay: GC/MS-based sterol profiling, zymostenol accumulation; format: cell-based, mouse; conditions: 8 doses from 0.15 nM to 333 nM, read-out: mZymo GCMS EC50
Experimental: (§1) To assess effects of treatments on OPCs, all treatments were assayed in two or more independent platings of epiblast stem cell-derived OPCs (EpiSC). EpiSC-derived OPCs were obtained using in vitro differentiation protocols and culture conditions described previously (Najm et al, 2011, Nature Methods). OPCs were expanded and frozen down in aliquots. OPCs were thawed into growth conditions for at least one passage before use in further assays.
Sterols were monitored using a modified Folch wash protocol (Hubler et al, 2018, Nature). EpiSC-derived OPCs were plated at 100,000 cells per well in PO— and laminin-coated 96-well plates in N2B27 media without growth factors. After 24 hours, cells were rinsed with saline and plates were frozen. Cholesterol-d7 standard was then added to each well before drying under nitrogen stream and derivatization with 55 μl of bis(trimethylsilyl) trifluoroacetamide. After derivatization, 2 μl were analyzed by gas chromatography/mass spectrometry using an Agilent 5973 Network Mass Selective Detector equipped with a 6890 gas chromatograph system and a HP-5MS capillary column (30 m x 0.25 mm×[…]). Samples were analyzed in full scan mode using electron impact ionization; ion fragment peaks were integrated to calculate sterol abundance, and quantitation was relative to cholesterol-d7. The following ion fragments were used to quantitate each metabolite: cholesterol-d7 (465), FF-Mas (482), cholesterol (368), zymostenol (458), zymosterol (456), Desmosterol (456, 343), 7-dehydrocholesterol (456, 325), lanosterol (393), lathosterol (458), 14-dehydrozymostenol (456, 351). […] All standards were obtained from Avanti Polar Lipids unless otherwise indicated. Calibration curves were generated by injecting varying concentrations of sterol standards and maintaining a fixed amount of cholesterol-D7. For normalized zymostenol accumulation results, the total amount of zymostenol measured after drug treatment was divided by the total amount of zymostenol accumulated after 24 hr treatment with 100 nM positive control reference.

EpiSC-derived OPCs = assay: In vitro phenotypic screening of OPCs, MBP high-content imaging; format: cell-based, mouse; conditions: percentage of MBP+ oligodendrocytes, 3 days, 0.5 nM to 1000 nM, read-out: mOPC EC50
Experimental: as §1
EpiSC-derived OPCs were grown and expanded in poly-L-ornithine (PO) and laminin-coated flasks in N2B27 media (DMEM/F12 (Gibco), N2-MAX (R&D Systems), B-27 (ThermoFisher), and GlutaMax (Gibco)) supplemented with FGF2 ([…], R&D systems, 233-FB-025) and PDGF-AA ([…], R&D systems, 233-AA-050) before harvesting for experiments. The cells were seeded onto poly-L-ornithine or poly-D-lysine coated CellCarrier Ultra plates (PerkinElmer) coated with laminin (Sigma, L2020) at a density of 150,000/cm^2 in N2B27 media without growth factors. For dose-response testing, a 1000× compound stock in dimethyl sulphoxide (DMSO) was added to assay plates, resulting in 8-point dose curves with final concentrations between 1000 nM and 0.5 nM. Positive controls and DMSO vehicle controls were included in each assay plate. Cells were incubated under standard conditions (37° C., 5% CO2) for 3 days and fixed with 4% paraformaldehyde (PFA) in phosphate buffered saline (PBS) for 20 min. Fixed plates were washed with PBS, permeabilized with 0.1% Triton X-100, and blocked with 10% donkey serum (v/v) in PBS for 40 min. Then, cells were labelled with MBP antibodies (Abcam, ab7349; 1:200) for 2 h at room temperature, washed with PBS, and stained with Alexa Fluor conjugated secondary antibodies (1:500) for 45 min. Nuclei were visualized by DAPI staining (Sigma; 1 μg/ml), followed by further PBS washes.
Cells and cell culture plates were imaged on the Operetta High Content Imaging and Analysis system (PerkinElmer). Analysis (PerkinElmer Harmony and Columbus software) began by identifying intact nuclei stained by DAPI. The peri-nuclear region of each cell was then cross-referenced with the mature myelin protein (MBP) stain to identify oligodendrocyte nuclei, and from this the percentage of oligodendrocytes was calculated. EC50 values were calculated using The Levenberg-Marquardt algorithm to fit a Hill equation to dose-response data (0.5 nM to 1000 nM).

Ki [1]	EC50 ([2]; 24 hours)	EC50 (EpiSC-derived OPCs)	EC50 ([2]; Mus musculus, 24 h)	EC50 (EpiSC-derived OPCs; Mus musculus, 72 h)	SMILES
8.31 nM	–	–	2.5 nM	20 nM	CC(Cc1ccc(C2CC2(C)C)cc1)CN1CCC2(C1)CS(=O)(=O)C2 (racemic) [Compound 102]
12.9 nM	–	–	66 nM	260 nM	CCC(C)(C)c1ccc(CCC(C)N2CCC3(C2)CS(=O)(=O)C3)cc1 (racemic) [Compound 105, 6-(4-(4-(tert-Pentyl)phenyl)butan-2-yl)-2-thia-6-azaspiro[3.4]octane 2,2-dioxide]
9.72 nM	–	–	5.5 nM	7.5 nM	CC(Cc1ccc(C2CC2)cc1)CN1CCC2(C1)CS(=O)(=O)C2 (racemic) [Compound 108, 6-(3-(4-Cyclopropylphenyl)-2-methylpropyl)-2-thia-6-azaspiro[3.4]octane 2,2-dioxide]
8.44 nM	–	–	22 nM	30 nM	CCC(C)(C)c1ccc(CC(C)CN2CCC3(CC2)CS(=O)(=O)C3)cc1 (racemic) [Compound 110, 7-(2-Methyl-3-(4-(tert-pentyl)phenyl)propyl)-2-thia-7-azaspiro[3.5]nonane 2,2-dioxide]
8.57 nM	–	–	1.3 nM	20 nM	CC(Cc1ccc(C2(C)CC2)cc1)CN1CCC2(C1)CS(=O)(=O)C2 (racemic) [Compound 111A, 6-(2-Methyl-3-(4-(1-methylcyclopropyl)phenyl)propyl)-2-thia-6-azaspiro[3.4]octane 2,2-dioxide]
7.27 nM	–	–	0.52 nM	0.72 nM	C[C@@H](Cc1ccc(OC(F)(F)F)cc1)CN1CCC2(C1)CS(=O)(=O)C2 (single isomer, unassigned) [119A*]
10.5 nM	–	–	4 nM	2.2 nM	C[C@H](Cc1ccc(OC(F)(F)F)cc1)CN1CCC2(C1)CS(=O)(=O)C2 (single isomer, unassigned) [119B*]

Continued, molecule first:

SMILES	Ki [1]	EC50 ([2]; 24 hours)	EC50 (EpiSC-derived OPCs)	EC50 ([2]; Mus musculus, 24 h)	EC50 (EpiSC-derived OPCs; Mus musculus, 72 h)
C[C@@H](Cc1ccc([C@H]2CC[C@](C)(O)CC2)c(Cl)c1)CN1CCC2(C1)CS(=O)(=O)C2 (mixture of isomers) [Compound 123B, 6-((S)-3-(3-Chloro-4-((1r,4S)-4-hydroxy-4-methylcyclohexyl)phenyl)-2-methylpropyl)-2-thia-6-azaspiro[3.4]octane 2,2-dioxide, and 6-((R)-3-(3-chloro-4-((1r,4R)-4-hydroxy-4-methylcyclohexyl)phenyl)-2-methylpropyl)-2-thia-6-azaspiro[3.4]octane 2,2-dioxide]	11 nM	2.4 nM	35 nM	–	–
O=S1(=O)CC2(CCN(CCOc3cnc([C@H]4CCC[C@H](C(F)(F)F)C4)nc3)CC2)C1 (relative stereo) [Compound 248A, 7-(2-((2-((trans)-3-(Trifluoromethyl)cyclohexyl)pyrimidin-5-yl)oxy)ethyl)-2-thia-7-azaspiro[3.5]nonane 2,2-dioxide]	14.9 nM	–	–	24.4 nM	94.8 nM
O=S1(=O)CC2(CCN(CCOc3cnc([C@H]4CCC[C@@H](C(F)(F)F)C4)nc3)CC2)C1 (relative stereo) [Compound 248B, 7-(2-((2-((cis)-3-(trifluoromethyl)cyclohexyl)pyrimidin-5-yl)oxy)ethyl)-2-thia-7-azaspiro[3.5]nonane 2,2-dioxide]	31.6 nM	–	–	25.6 nM	74.1 nM
C[C@H](Cc1ccc(C2CCC2)cc1)CN1CCC2(C1)CS(=O)(=O)C2 (single isomer, unassigned) [109B*]	6.54 nM	–	–	0.4 nM	0.55 nM
C[C@@H](Cc1ccc(C2CCC2)cc1)CN1CCC2(C1)CS(=O)(=O)C2 (single isomer, unassigned) [109C*]	5.14 nM	–	–	2.1 nM	3 nM
C[C@H](CN1CCC2(C1)CS(=O)(=O)C2)Oc1ccc(C(F)(F)F)cc1 (single isomer, unassigned) [115A*]	18.9 nM	–	–	8.6 nM	42 nM
C[C@@H](CN1CCC2(C1)CS(=O)(=O)C2)Oc1ccc(C(F)(F)F)cc1 (single isomer, unassigned) [115B*]	13.5 nM	–	–	15 nM	29 nM
C[C@H](Cc1ccc(C2CCC(F)(F)CC2)c(Cl)c1)CN1CCC2(C1)CS(=O)(=O)C2 (single isomer, unassigned) [117B*]	9.86 nM	–	–	0.35 nM	0.46 nM
C[C@H](Cc1ccc(C(F)(F)F)nc1)CN1CCC2(C1)CS(=O)(=O)C2 (single isomer, unassigned) [118B*]	50.5 nM	–	–	54 nM	140 nM
C[C@@H](Cc1ccc(C(F)(F)F)cn1)CN1CCC2(C1)CS(=O)(=O)C2 (single isomer, unassigned) [121A*]	115 nM	–	–	6.1 nM	23 nM
C[C@H](Cc1ccc(C(F)(F)F)cn1)CN1CCC2(C1)CS(=O)(=O)C2 (single isomer, unassigned) [121B*]	140 nM	–	–	150 nM	260 nM
CC(Cc1ccc(F)c(F)c1)CN1CCC2(CC1)CS(=O)(=O)C2 (single isomer, unassigned) [212A*, 7-(3-(3,4-Difluorophenyl)-2-methylpropyl)-2-thia-7-azaspiro[3.5]nonane 2,2-dioxide]	15.6 nM	–	–	2.36 nM	4.7 nM
